From patent US12018059B2, “Human amylin analog polypeptides and methods of use” (Intarcia Therapeutics, Inc., priority 2018, dated 2024)
Starred links: 1 amine or outer side, 2 acyl side, 3 side chain; linkers in the order of their positions; H or OH if unused. Positions of bridges follow the written chain, without caps; N, C: chain ends. Non-standard residues stand in square brackets, D forms with d. Residues, ends and D or L forms follow the SMILES beside them. Groups on a side chain read outwards from the residue. *: point of attachment. C18 diacid = O=C(O)CCCCCCCCCCCCCCCCC(=O)*; γGlu = O=C(O)[C@H](CCC(=O)[*:2])N[*:1]; Palmitoyl = CCCCCCCCCCCCCCCC(=O)*

Experiment: in vivo
Parameters: species or system Sprague-Dawley rats
Details: rat, iv, 0.033 mg/kg
Summary of the method: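 Male Sprague-Dawley rats, non-fasted (n=3), given peptide in saline as 1-h IV or SC infusion at 0.033 mg/kg, or SC bolus at 0.3 mg/kg; jugular blood to 48 h into K2EDTA plus protease inhibitors. Plasma extracted by precipitation or WCX solid-phase extraction, quantified by UPLC-MS/MS against standards in matching rat plasma.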
For `CC[C@H](C)[C@H](NC(=O)[C@@H]1CCCN1C(=O)CNC(=O)[C@H](Cc1ccccc1)NC(=O)[C@H](CC(N)=O)NC(=O)[C@H](CC(N)=O)NC(=O)[C@H](CO)NC(=O)[C@H](CO)NC(=O)[C@H](CCCCN)NC(=O)[C@H](Cc1c[nH]cn1)NC(=O)[C@@H](CCCCNC(=O)CC[C@H](NC(=O)CC[C@H](NC(=O)CC[C@H](NC(=O)CCCCCCCCCCCCCCCCC(=O)O)C(=O)O)C(=O)O)C(=O)O)NC(=O)[C@H](CCC(=O)O)NC(=O)[C@H](CC(N)=O)NC(=O)[C@H](C)NC(=O)[C@H](CC(C)C)NC(=O)[C@H](CCCNC(=N)N)NC(=O)[C@H](CCC(N)=O)NC(=O)[C@@H](NC(=O)[C@H](C)NC(=O)[C@@H]1CSSC[C@H](NC(=O)[C@@H](N)CO)C(=O)N[C@@H](CC(N)=O)C(=O)N[C@@H]([C@@H](C)O)C(=O)N[C@@H](CO)C(=O)N[C@@H]([C@@H](C)O)C(=O)N1)[C@@H](C)O)C(=O)N[C@@H](CC(C)C)C(=O)N1CCC[C@H]1C(=O)N1CCC[C@H]1C(=O)N[C@H](C(=O)N[C@@H](CCCCN)C(=O)N[C@H](C(=O)NCC(=O)N[C@@H](CO)C(=O)N[C@@H](CCC(=O)O)C(=O)N[C@H](C(=O)N[C@@H](Cc1ccc(O)cc1)C(N)=O)[C@@H](C)O)C(C)C)[C@@H](C)O` [Compound A104] (H-SCNTSTCATQRLANE[dK]([γGlu-γGlu-γGlu-C18 diacid])HKSSNNFGPILPPTKVGSETY-NH2; disulfide 2-7), the Vd was 0.137 L/kg, the clearance was 0.108 mL/min/kg and the half-life was 16.6 h.
`CCCCCCCCCCCCCCCC(=O)N[C@@H](CCC(=O)NCCCC[C@H](NC(=O)[C@@H]1CSSC[C@H](NC(=O)[C@@H](N)CO)C(=O)N[C@@H](CC(N)=O)C(=O)N[C@@H]([C@@H](C)O)C(=O)N[C@@H](CO)C(=O)N[C@@H]([C@@H](C)O)C(=O)N1)C(=O)N[C@H](C(=O)N[C@@H](CCC(N)=O)C(=O)N[C@@H](CCCNC(=N)N)C(=O)N[C@@H](CC(C)C)C(=O)N[C@@H](C)C(=O)N[C@@H](CC(N)=O)C(=O)N[C@@H](CCC(=O)O)C(=O)N[C@@H](CC(C)C)C(=O)N[C@@H](Cc1c[nH]cn1)C(=O)N[C@@H](CCCCN)C(=O)N[C@@H](CO)C(=O)N[C@@H](CO)C(=O)N[C@@H](CC(N)=O)C(=O)N[C@@H](CC(N)=O)C(=O)N[C@@H](Cc1ccccc1)C(=O)NCC(=O)N1CCC[C@H]1C(=O)N[C@H](C(=O)N[C@@H](CC(C)C)C(=O)N1CCC[C@H]1C(=O)N1CCC[C@H]1C(=O)N[C@H](C(=O)N[C@@H](CCCCN)C(=O)N[C@H](C(=O)NCC(=O)N[C@@H](CO)C(=O)N[C@@H](CCC(=O)O)C(=O)N[C@H](C(=O)N[C@@H](Cc1ccc(O)cc1)C(N)=O)[C@@H](C)O)C(C)C)[C@@H](C)O)[C@@H](C)CC)[C@@H](C)O)C(=O)O` [Compound A108] (H-SCNTSTCK([γGlu-Palmitoyl])TQRLANELHKSSNNFGPILPPTKVGSETY-NH2; disulfide 2-7) showed a Vd of 0.396 L/kg, a clearance of 6.45 mL/min/kg and a half-life of 1.01 h.
